# Data: US12023319B2, “Carboxylic acid aromatic amides” (priority 2016, dated 2024)
# Columns and labels:
# [1] = test system: Male Sprague Dawley rats; assay: Rat CFA in vivo model (mechanical hyperalgesia, paw withdrawal threshold); settings: 2 hours post-compound
# Experimental: Male Sprague Dawley rats were used. Mechanical hyperalgesia was induced by injecting 25 μL of Complete Freund's Adjuvant (CFA) into the plantar surface of one hind paw. Mechanical hyperalgesia was measured using the Pressure Application Measurement apparatus (Ugo Basile, Gemonio, Italy). Briefly, a linearly increasing pressure was applied to an area of ˜50 mm^2 of the plantar side of the hind paw until a behavioural response (paw withdrawal) was observed or until the pressure reached 1000 gf. The pressure at which the behavioural response occurred was recorded as the “Paw Withdrawal Threshold” (PWT). Both CFA-injected and contralateral PWTs were determined for each rat, in each treatment group and at each time point of the studies. The Compound Examples were administered orally in a vehicle of dimethylsulfoxide (DMSO), Polyethylenglycol (PEG) and 2-hydroxypropyl-beta-cyclodextrin (HPCD) (v/v/v=3:20:77). Rats received a first dose of […] of Compound Example per kg body weight 1 hour before CFA injection and a second dose 24 hours after the CFA injection. Mechanical hyperalgesia testing was performed approximately 2 hours before CFA injection, then 2 and 4 hours after the second dose of Compound Example (i.e. 26 and 28 hours after CFA treatment). Data were expressed as the mean±S.D. Area Under the Curve (AUC) of PWTs (defined in table 3 as “AUC of Paw withdrawal threshold (AUC 0-4 hours) post-vehicle” with respect to vehicle group or “AUC of Paw withdrawal threshold (AUC 0-4 hours) post-drug” with respect to Compound Example). Data were analysed by performing a one-way ANOVA followed by a Dunnett's post hoc test. For p values less than 0.05 the results were deemed to be statistically significant.
# [2] = test system: Female Brown Norway rats; assay: Rat model for endometriosis, acute phase (4 day); type: in vivo; settings: rat 4 day endometriosis model, once daily p.o. 1, 5, 15, 60 mg/kg
# Experimental: 4. Rat Model for Endometriosis, Acute Phase Female Brown Norway rats (Charles-River) were treated p.o. with Compound Example 3 (doses: 1 mg/kg, 5 mg/kg, 15 mg/kg, 60 mg/kg) or vehicle alone (10% DMSO+90% phosphate buffered saline (PBS)). 2 h later all animals got under deep anesthesia a transplantation of 6 uterus pieces in the peritoneal cavity. The tissue was obtained from donor animals which were pre-treated with 3 μg s.c. Estradiol (E2) for 2 days to guarantee standardized conditions of the uterus tissue. The animals were treated once daily p.o. with Compound Example 3 (doses: 1 mg/kg, 5 mg/kg, 15 mg/kg, 60 mg/kg) or vehicle alone (10% DMSO+90% phosphate buffered saline (PBS). 4 days later the animals were sacrificed and the transplants as surrogate endometriosis lesion tissue were analyzed for markers of lesion activity (inflammatory cytokines and proliferation marker). This approach is mimicking the early inflammatory phase of endometriosis close to menstruation. Analysis For RNA expression analysis the lesions, were excised. RNA was isolated after homogenization of tissues in guanidinium thiocyanate using the RNeasy mini Kit (Qiagen) with DNase digestion. […] Relative mRNA levels were calculated using the comparative CT method using the RQ-Manager software (Applied Biosystems). […]
# [3] = test system: male Lewis rats; assay: In vivo adjuvant-induced arthritis (AIA) model; parameters: species or system rat
# Source text: 10. In Vivo Adjuvant-Induced Arthritis (AIA) Model
# The AIA model is characterized by a rapid onset and progression to polyarticular inflammation. Following the injection of CFA, signs of arthritis usually develop between day 10 and day 14. Typically, the disease is severe and leads to permanent joint malformations, including ankylosis. Joint swelling, lymphocyte infiltration, and cartilage degradation are shared features with human autoimmune arthritis.
# To determine the anti-inflammatory activity of the Compound Examples, they were examined for their in vivo efficacy in an arthritis model. For this purpose, male Lewis rats (about 100 to 125 g, Charles River Laboratories, Germany) were each administered 100 μl of a complete Freund's adjuvant (CFA) solution (M. tuberculosis H37Ra [Difo Lab, Cat. No. 231141] dissolved in Incomplete Freund's adjuvant [Difco Lab, Cat. No. 263910]) into the tailhead subcutaneously on day 0. There were n=8 rats in each group. Both, a healthy control group and a disease control group treated with the vehicle only were included in the study. Each control group was given oral (p.o. or PO) treatment only with the vehicle (5% DMSO/95% PBS) of the Compound Examples. The treatment with different dosages of the Compound Examples dissolved in the vehicle was conducted in a preventative manner, i.e. starting from day 0 and continued to day 20, the end of the study, by daily oral administration. On day 0, the starting condition of the animals was determined in terms of the disease activity scores (rating of the severity of arthritis based on a points system). Here, points were awarded according to the extent of joint inflammation from 0 to 4 for the presence of an erythema including joint swelling (0=none; 1=slight; 2=moderate; 3=distinct; 4=severe) for both hind paws and were summed up to a single value. […] In addition, the extent of joint swelling was detected by measuring the ankles of hind paws sagittal×transversal [in mm^2] using an automated caliper (Bayer AG, Germany). Next to this, the grip strength, as a measure for hyperalgesia, using an automated grip strength test meter (IITC Life Science Inc., USA) was evaluated.
# Statistical analysis of obtained results for all parameters were done with one way Anova (ANOVA; Analysis of variance) and the comparison to the control group via multiple reference analysis (Dunnett-test).
structure (smiles),measurement,setting,value
"O=C(O)c1cc(NC(=O)C2(c3ccc(C(F)(F)F)cc3F)CC2)ccc1-c1cnn(C2CCC2)c1 [Example 3, 2-(1-Cyclobutyl-1H-pyrazol-4-yl)-5-[({1-[2-fluoro-4-(trifluoromethyl)phenyl]cyclopropyl}carbonyl)amino]benzoic acid]",Paw withdrawal threshold 2 hours post-compound,[1]; 0.75 mg/kg p.o.,659 ± 20 gf (ns)
same,Paw withdrawal threshold 2 hours post-compound,[1]; 3 mg/kg p.o.,782 ± 50 gf (****)
same,Paw withdrawal threshold 2 hours post-compound,[1]; 15 mg/kg p.o.,812 ± 44 gf (****)
same,Paw withdrawal threshold 2 hours post-compound,[1]; 60 mg/kg p.o.,885 ± 30 gf (****)
same,expression of proliferation marker (PCNA) in lesions,[2]; FIG. 1,decreased
same,"expression of inflammatory cytokines in lesions (TNF alpha, IL-1 beta, IL-6)",[2]; FIG. 2-4,decreased
same,dose-dependency in the adjuvant-induced arthritis (AIA) model,"[3]; 60, 15 or 3 mg/kg QD p.o., day 0 to day 20",clear dose-dependency
same,severity of rat AIA,[3]; oral treatment with 60 mg/kg once daily,significantly inhibited
same,disease activity score,"[3]; rat AIA model, oral once daily, FIG. 14A",reduction
same,extent of joint swelling,"[3]; rat AIA model, oral once daily, FIG. 14B",reduction
same,grip strength (hyperalgesia),"[3]; rat AIA model, oral once daily, FIG. 15",increase
